According to patent publication US11311524B2, “Pharmaceutical composition used for treatment of HTLV-1-associated myelopathy” (DAIICHI SANKYO COMPANY, LIMITED, priority 2017, dated 2022):

Key:
HAM patient-derived PBMC = assay: IL-10 and other cytokine release from HAM patient-derived PBMC (Cytokine Beads Array); format: cell-based, human; settings: PBMC of 8 HAM patients, 12 days culture, 1-1000 nM, relative to DMSO
Experimental: PBMC taken from 8 HAM patients were suspended in a culture medium (RPMI1640 culture medium containing 10% FBS), seeded in a 48-well plate in a ratio of 5×10^5 cells per well and a compound A or compound B was added so as to provide a final concentration of 1, 10, 100 or 1000 nM. The culture solution of 0.5 mL in total was cultured at 37° C. in 5% CO2 conditions for 12 days. A group treated with DMSO and a group treated with PSL (1 μg/mL) were used as controls. Day 12 after initiation of the culture, the culture solution was centrifuged, and thereafter, the culture supernatant alone was recovered. The concentration of IL-10 in the culture supernatant was determined by use of the Cytokine Beads Array kit (BD Biosciences) and a flow cytometer FACSCantoII (BD Biosciences) (Yamauchi et al., J Infect Dis. 2015, 211 (2): 238-48). Based on the IL-10 concentration in the culture solution of the DMSO treatment group as 100%, changes in IL-10 concentration of culture solutions of groups treated with compound A and compound B different in concentration or a group treated with PSL (1 μg/mL) were compared. The significance test was carried out by using the Friedman test of GraphPad Prism6 (MDF).

HCT-4 cells [1] = assay: Proliferation/viability of HTLV-1 infected cell line HCT-4 (CCK-8); format: cell-based, human; settings: for Viability of HTLV-1 infected cells vs DMSO group: HCT-4, 1 μM, up to 21 days culture; for GI50: Homo sapiens, 336 h, 14 days culture, CCK-8
Experimental: HCT-4 and HCT-5, which were HTLV-1 infected cell lines established from the cerebrospinal fluid of HAM patients, were donated from a professor, Tatsufumi Nakamura of the Nagasaki International University. HCT-4 was cultured in RPMI1640 culture medium containing 10% FBS (GIBCO), a 1% penicillin-streptomycin solution (Wako) and 100 U/mL IL-2 (Cell Science & Technology Institute, Inc.); whereas HCT-5 was cultured by using 10% FBS, 1% penicillin-streptomycin solution, 1% L-glutamine (SIGMA) and 200 U/mL IL-2. HCT-4 (3×10^6 cells) or HCT-5 (2.5×10^6 cells) were seeded in a culture medium (20 mL) in a 75 cm^2-culture flask. DMSO was added and compound A or B was added so as to provide a final concentration of 1 μM and culture was carried out at 37° C. in 5% CO2 conditions for 21 days while repeating subculture. In the subculture, a culture solution containing HCT-4 treated with DMSO so as to correspond to 3×10^6 cells, whereas a culture solution containing HCT-5 treated with DMSO so as to correspond to 2.5×10^6 cells were taken and each added to a new culture medium to obtain a final volume of 20 mL, and then, further compound A or B was added so as to obtain the same concentration as above. Day 7, 14 and 21 after initiation of culture, cells were recovered from the culture solution and the density of the cells was measured. In this manner, the effect of compound A or B on cell proliferation was examined. The density of cells was determined by seeding cultured cells in a 96-well plate in a volume of 100 μL per well, adding 10 μL of Cell counting kit-8 (CCK-8) (Dojindo Laboratories laboratory) per well, incubating the cells at 37° C. for 3 hours and measuring absorbance at 450 nm by a plate reader (iMark Microplate Reader, Biorad). The proliferation rates of cell groups treated with compound A or compound B were each calculated based on the cell group treated with DMSO as a control. Next, in a 6-well plate, HCT-4 (4.5×10^5 cells) or HCT-5 (3.75×10^5 cells) were seeded. A solution of compound A or B prepared with DMSO was serially diluted (4-fold dilution from 10000 nM was serially repeated 8 times) and added thereto. The cells were repeatedly subcultured at intervals of 3 to 4 days in a culture solution of 3 mL in total at 37° C. in 5% CO2 condition for 14 days. […] The cells cultured for 14 days in individual conditions were recovered and the density of the cells were measured. […] The density of cells was determined by seeding the cultured cells (100 μL) per well in a 96-well plate, adding 10 μL of CCK-8 per well, incubating the cells at 37° C. for 3 hours and measuring absorbance at 450 nm by a plate reader. The proliferation rate of a group treated with compound A or compound B was calculated based on the group treated with DMSO as a control.

HCT-4 cells [2] = assay: Apoptosis of HCT-4 cells (Annexin V-PE / 7-AAD, FACS); format: cell-based, human; settings: HCT-4, 1 μM, 21 days
Experimental: (§1) In this Example, experiments were carried out using the cells cultured for 21 days in Example 5. To detect apoptotic cells in the cells cultured for 21 days by adding 1 μM of compound A or compound B, the cells were stained by use of PE Annexin V apoptosis Detection Kit I (BD) and analyzed by FACS. In this analysis, the viable cells were detected based on FSC (forward scatter)-SSC (side scatter) plots. The viable cells were analyzed by Annexin V-PE (annexin V) and 7-AAD (7-amino actinomycin D). Early apoptotic cells were detected as Annexin V (+) 7-AAD (−) cells. The results were as shown in FIG. 8 (HCT-4 cells) and FIG. 9 (HCT-5 cells).

HCT-5 cells = assay: Apoptosis of HCT-5 cells (Annexin V-PE / 7-AAD, FACS); format: cell-based, human; settings: HCT-5, 1 μM, 21 days
Experimental: as §1

EZH1 = EZH1 (Homo sapiens, UniProt Q92800); settings: from WO2015/141616; cited from earlier work
EZH1, sequence (Q92800 whole entry): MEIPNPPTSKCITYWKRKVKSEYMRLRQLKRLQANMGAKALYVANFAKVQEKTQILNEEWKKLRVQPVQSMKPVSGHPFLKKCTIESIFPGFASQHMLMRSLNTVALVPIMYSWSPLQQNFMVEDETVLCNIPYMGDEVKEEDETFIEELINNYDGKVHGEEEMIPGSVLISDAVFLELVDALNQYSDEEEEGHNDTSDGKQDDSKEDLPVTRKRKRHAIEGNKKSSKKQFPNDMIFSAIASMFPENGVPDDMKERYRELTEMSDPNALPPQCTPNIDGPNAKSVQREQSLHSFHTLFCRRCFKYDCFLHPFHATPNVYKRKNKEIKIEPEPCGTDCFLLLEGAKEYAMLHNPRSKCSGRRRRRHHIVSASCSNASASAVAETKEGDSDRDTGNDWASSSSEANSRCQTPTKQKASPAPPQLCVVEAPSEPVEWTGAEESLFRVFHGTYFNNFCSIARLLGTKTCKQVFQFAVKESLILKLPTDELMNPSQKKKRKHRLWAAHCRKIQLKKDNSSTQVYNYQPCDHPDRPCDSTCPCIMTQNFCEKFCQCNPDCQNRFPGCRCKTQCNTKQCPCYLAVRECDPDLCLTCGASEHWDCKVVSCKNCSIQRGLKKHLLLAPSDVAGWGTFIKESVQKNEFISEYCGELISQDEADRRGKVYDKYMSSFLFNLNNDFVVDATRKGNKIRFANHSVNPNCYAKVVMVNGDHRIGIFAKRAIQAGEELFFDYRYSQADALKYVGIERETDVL
EZH1, sequence (O75530 whole entry partner): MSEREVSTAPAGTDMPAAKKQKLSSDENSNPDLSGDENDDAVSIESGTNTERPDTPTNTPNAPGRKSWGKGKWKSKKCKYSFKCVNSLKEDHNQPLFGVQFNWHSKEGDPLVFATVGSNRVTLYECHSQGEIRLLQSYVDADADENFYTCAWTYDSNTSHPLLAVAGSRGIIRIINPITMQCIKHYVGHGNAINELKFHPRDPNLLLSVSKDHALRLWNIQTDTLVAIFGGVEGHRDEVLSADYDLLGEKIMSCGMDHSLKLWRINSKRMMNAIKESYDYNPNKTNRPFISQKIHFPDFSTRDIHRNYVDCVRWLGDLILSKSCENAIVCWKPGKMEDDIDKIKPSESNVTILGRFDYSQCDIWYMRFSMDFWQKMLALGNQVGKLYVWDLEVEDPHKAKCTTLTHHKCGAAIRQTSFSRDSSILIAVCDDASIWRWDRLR
EZH1, sequence (Q15022 whole entry partner): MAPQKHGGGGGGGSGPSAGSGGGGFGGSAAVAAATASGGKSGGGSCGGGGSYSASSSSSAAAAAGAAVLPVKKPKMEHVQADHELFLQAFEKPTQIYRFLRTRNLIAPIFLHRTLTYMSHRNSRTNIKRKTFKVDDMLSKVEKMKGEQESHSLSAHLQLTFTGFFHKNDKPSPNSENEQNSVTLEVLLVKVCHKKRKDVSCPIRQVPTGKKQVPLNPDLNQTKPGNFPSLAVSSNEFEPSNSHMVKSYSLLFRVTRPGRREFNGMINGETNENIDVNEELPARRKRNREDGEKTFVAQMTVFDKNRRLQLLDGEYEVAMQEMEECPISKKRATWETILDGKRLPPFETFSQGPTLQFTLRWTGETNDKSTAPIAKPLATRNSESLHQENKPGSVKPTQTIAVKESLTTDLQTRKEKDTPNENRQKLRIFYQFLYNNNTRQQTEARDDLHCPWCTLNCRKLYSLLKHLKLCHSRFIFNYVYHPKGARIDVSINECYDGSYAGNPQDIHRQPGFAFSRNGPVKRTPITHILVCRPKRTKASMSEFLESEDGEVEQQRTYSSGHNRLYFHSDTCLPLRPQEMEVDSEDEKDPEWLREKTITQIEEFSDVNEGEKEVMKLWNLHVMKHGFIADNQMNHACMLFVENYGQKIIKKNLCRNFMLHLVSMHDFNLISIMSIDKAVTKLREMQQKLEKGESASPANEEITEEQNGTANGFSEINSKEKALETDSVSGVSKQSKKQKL
EZH1, sequence (Q09028 whole entry partner): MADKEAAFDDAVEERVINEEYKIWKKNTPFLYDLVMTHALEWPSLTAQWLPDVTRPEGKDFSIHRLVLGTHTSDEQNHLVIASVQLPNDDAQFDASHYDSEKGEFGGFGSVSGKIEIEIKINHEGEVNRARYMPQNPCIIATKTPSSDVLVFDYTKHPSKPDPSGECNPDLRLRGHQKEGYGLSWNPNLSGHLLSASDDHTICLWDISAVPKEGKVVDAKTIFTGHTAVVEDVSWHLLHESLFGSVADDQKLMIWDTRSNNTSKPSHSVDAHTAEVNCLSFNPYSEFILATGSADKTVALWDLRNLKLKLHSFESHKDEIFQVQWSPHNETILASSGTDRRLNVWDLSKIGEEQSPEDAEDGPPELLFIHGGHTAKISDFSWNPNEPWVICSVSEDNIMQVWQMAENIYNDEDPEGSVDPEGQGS

With `Cc1cc(C)c(CNC(=O)c2cc(Cl)c3c(c2C)O[C@@](C)([C@H]2CC[C@H](N(C)C)CC2)O3)c(=O)[nH]1` [compound B, (2R)-7-chloro-2-[trans-4-(dimethylamino)cyclohexyl]-N-[(4,6-dimethyl-2-oxo-1,2-dihydropyridin-3-yl)methyl]-2,4-dimethyl-1,3-benzodioxole-5-carboxamide] the “Yield of IL-10 from PBMC” value (HAM patient-derived PBMC) was “dramatically increased”, the “Viability of HTLV-1 infected cells vs DMSO group” value (HCT-4 cells [1]) was “significantly reduce the viability” and the GI50 (HCT-4 cells [1]) was 5.92 nM. The “Number of early apoptotic cells (Annexin V (+) 7-AAD (−))” value (“Number of early apoptotic cells” below) (HCT-4 cells [2]) was “the number of early apoptotic cells increased”, the “Number of viable cells (FSC-SSC)” value (HCT-4 cells [2]) was “the number of viable cells decreases” and the “Number of early apoptotic cells” value (HCT-5 cells) was “the number of early apoptotic cells increased”. The “Number of viable cells (FSC-SSC)” value (HCT-5 cells) was “the number of viable cells decreases” and the “Inhibition of enzyme activity of EZH1” value (EZH1) was “inhibit”.

With `Cc1cc(C)c(CNC(=O)c2cc(Br)c3c(c2C)O[C@@](C)([C@H]2CC[C@H](N(C)C)CC2)O3)c(=O)[nH]1` [compound A, (2R)-7-bromo-2-[trans-4-(dimethylamino)cyclohexyl]-N-[(4,6-dimethyl-2-oxo-1,2-dihydropyridin-3-yl)methyl]-2,4-dimethyl-1,3-benzodioxole-5-carboxamide] the “Yield of IL-10 from PBMC” value (HAM patient-derived PBMC) was “dramatically increased”, the “Viability of HTLV-1 infected cells vs DMSO group” value (HCT-4 cells [1]) was “significantly reduce the viability” and the GI50 (HCT-4 cells [1]) was 7.63 nM. For the same compound, the “Number of early apoptotic cells” value (HCT-4 cells [2]) was “the number of early apoptotic cells increased”, the “Number of viable cells (FSC-SSC)” value (HCT-4 cells [2]) was “the number of viable cells decreases” and the “Number of early apoptotic cells” value (HCT-5 cells) was “the number of early apoptotic cells increased”. The “Number of viable cells (FSC-SSC)” value (HCT-5 cells) was “the number of viable cells decreases” and the “Inhibition of enzyme activity of EZH1” value (EZH1) was “inhibit”.
